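Method: 48-hour compound exposure of cells in 96-well plates, five concentrations, linear interpolation of endpoints. The concentration for full growth arrest is given as TGI.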
Assays:
Assay in all cases: NCI tumour cell line growth inhibition, 48 h
[1] = tested on: SF-268 CNS
[2] = tested on: MDA-N
[3] = tested on: MOLT-4 leukemia
[4] = tested on: CAKI-1 renal
[5] = tested on: HCT-116 colon
[6] = tested on: MCF7 breast
[7] = tested on: CCRF-CEM leukemia
[8] = tested on: UO-31 renal
[9] = tested on: OVCAR-8 ovarian
[10] = tested on: SK-MEL-28 melanoma
[11] = tested on: UACC-62 melanoma
[12] = tested on: SN12C renal
[13] = tested on: MDA-MB-231 breast
[14] = tested on: HCC-2998 colon
[15] = tested on: HS 578T breast
[16] = tested on: SK-OV-3 ovarian
[17] = tested on: IGROV1 ovarian
[18] = tested on: U251 CNS
[19] = tested on: OVCAR-3 ovarian
[20] = tested on: SNB-19 CNS

Measured: TGI

NC(CCOCCP(=O)(O)O)C(=O)O (stereo not given)
> 100 µM: all assays above
